How the values were obtained:
[1] = in vivo; cited from earlier work
[2] = Food intake in food-deprived rats after ip injection (Example 1); assay type: in vivo; details: for Post-Drug Food Intake, 0-1 hr / Post-Drug Food Intake, 1-2 hr / Post-Drug Food Intake, 2-6 hr / Post-Drug Food Intake, 6-8 hr / Post-Drug Food Intake, 8-24 hr / Cumulative Food Intake, 1 hr / Cumulative Food Intake, 2 hr / Cumulative Food Intake, 6 hr / Cumulative Food Intake, 8 hr / Cumulative Food Intake, 24 hr: mean ± SD; for Post-Drug Food Intake, 0-1 hr / Cumulative Food Intake, 1 hr: control 5.3 ± 1.3; for Post-Drug Food Intake, 1-2 hr: control 0.6 ± 0.7; for Post-Drug Food Intake, 2-6 hr: control 2.5 ± 1.6; for Post-Drug Food Intake, 6-8 hr: control 2.0 ± 1.0; for Post-Drug Food Intake, 8-24 hr: control 20.8 ± 1.7; for Cumulative Food Intake, 2 hr: control 5.9 ± 1.2; for Cumulative Food Intake, 6 hr: control 8.4 ± 0.9; for Cumulative Food Intake, 8 hr: control 10.4 ± 1.6; for Cumulative Food Intake, 24 hr: control 31.2 ± 2.1
Protocol: Forty-eight 70-to-80-day-old male rats (Bantin & Kingman, Fremont, Calif.) were housed singly in suspended cages, and were acclimated to the laboratory setting for a period of 12 days prior to testing. During this time, they were allowed ad libitum access to food (Ralston-Purina #5001M) and water. The room was kept at 24°-27° C. and maintained on a 12:12-hr light:dark schedule (0700-1900 h).
Animals matched by body weight and mean daily food intake were assigned to 4 groups (n=12/group). Food jars were removed at 0900 h. Twenty-four hours later, rats were injected with either sterile 0.9% saline or saline containing 1,2,3,4-tetrahydrobenzo[b]thieno[2,3-c]pyridine HCl (5, 10, or 25 mg/kg, ip). Pre-weighed food jars containing meal (Ralston-Purina #5001M) were presented immediately post-injection. These were weighed at intervals over the next 24 hours, and food consumption was calculated for each interval. Animals were provided with water in quantities sufficient for ad libitum consumption throughout the experiment.
To assess the duration of the drug-induced anorexia and rebound feeding behavior, food intake was measured at several time intervals after drug administration.

[3] = Alteration of macronutrient preference in rats, 75% or 25% carbohydrate test diets (Example 2); assay type: in vivo, rats (Sprague-Dawley); details: rat; for cumulative amount of 25% Carbohydrate diet consumed, 1 hr / cumulative amount of 25% Carbohydrate diet consumed, 2 hr / cumulative amount of 75% Carbohydrate diet consumed, 1 hr / cumulative amount of 75% Carbohydrate diet consumed, 2 hr: mean±SEM; for cumulative amount of 25% Carbohydrate diet consumed, 1 hr: saline 6.4 ± 0.5; for cumulative amount of 25% Carbohydrate diet consumed, 2 hr: saline 7.5 ± 1.7; for cumulative amount of 75% Carbohydrate diet consumed, 1 hr: saline 6.6 ± 0.5; for cumulative amount of 75% Carbohydrate diet consumed, 1 hr / cumulative amount of 75% Carbohydrate diet consumed, 2 hr: significant p < 0.01; for cumulative amount of 75% Carbohydrate diet consumed, 2 hr: saline 8.4 ± 1.6
Protocol: Sixty adult male rats (Sprague-Dawley, 225-300 g) were acclimated to laboratory conditions for a period of 10 days, during which they were allowed unrestricted access to food (Ralston-Purina #5001M) and water. All subjects were housed in individual cages, and the animal facility was maintained on a 12:12 hour light:dark cycle at 24°-27° C.
Animals were assigned to 6 groups (10 per group), then allowed to consume, ad libitum, one of two iso-nitrogenous test diets containing either 75% or 25% carbohydrate. After 3 days, food jars were removed. After an additional 24 hours, rats were administered either saline or 1,2,3,4-tetrahydrobenzo[b]thieno[2,3-c]pyridine (1.5 or 3.0 mg/Kg body weight), then given immediate access to the test diets. Data listed in Table 3 indicate the cumulative amount in grams (mean±SEM) of each diet consumed by the experimental and control groups during the subsequent 2-hour period.

[4] = Acute toxicity studies in mice; details: mouse, in vivo, ip, intraperitoneally
Protocol: In acute toxicity studies in mice, 1,2,3,4-tetrahydrobenzo[b]thieno[2,3-c]pyridine yields LD50 values in excess of 100 mg/kg when administered intraperitoneally and 100 mg/kg when administered by the oral route.

[5] = U.S. Pat. Nos. 3,636,218; 3,518,278; Miller et al; cited from earlier work
[6] = rat, 5 mg/Kg ip, significant p < 0.02
[7] = rat, 10 mg/Kg ip, significant p < 0.02
[8] = rat, 25 mg/Kg ip, significant p < 0.05
[9] = rat, 25 mg/Kg ip, significant p < 0.02

O=C(NCCN1CCOCC1)c1sc2ccccc2c1Br [3-bromo-2-(N-morpholinoethyl)benzo[b]thiophene carboximide]
anticonvulsant properties [1]: anticonvulsant properties | antidepressant activity [1]: antidepressant activity

c1ccc2c3c(sc2c1)CNCC3 [1,2,3,4-tetrahydrobenzo[b]thieno[2,3-c]pyridine]
Post-Drug Food Intake, 0-1 hr ([2]; rat, 5 mg/Kg ip, significant p < 0.05): 1.3 ± 0.6 gm | Post-Drug Food Intake, 1-2 hr ([2]; rat, 5 mg/Kg ip): 1.2 ± 0.6 gm | Post-Drug Food Intake, 2-6 hr ([2]; rat, 5 mg/Kg ip): 4.9 ± 1.6 gm | Post-Drug Food Intake, 6-8 hr ([2]; rat, 5 mg/Kg ip): 1.8 ± 1.3 gm | Post-Drug Food Intake, 8-24 hr ([2]; rat, 5 mg/Kg ip): 18.2 ± 1.9 gm | Cumulative Food Intake, 1 hr [2, 6]: 1.3 ± 0.6 gm | Cumulative Food Intake, 2 hr [2, 6]: 2.5 ± 0.7 gm | Cumulative Food Intake, 6 hr ([2]; rat, 5 mg/Kg ip): 7.4 ± 1.6 gm | Cumulative Food Intake, 8 hr ([2]; rat, 5 mg/Kg ip): 9.2 ± 1.6 gm | Cumulative Food Intake, 24 hr ([2]; rat, 5 mg/Kg ip): 27.4 ± 2.8 gm | food consumption in rats ([2]; rat, 5 mg/kg intraperitoneally): significantly reduce food consumption in rats | Post-Drug Food Intake, 0-1 hr ([2]; rat, 10 mg/Kg ip, significant p < 0.05): 0.9 ± 0.9 gm | Post-Drug Food Intake, 1-2 hr ([2]; rat, 10 mg/Kg ip): 1.1 ± 0.8 gm | Post-Drug Food Intake, 2-6 hr ([2]; rat, 10 mg/Kg ip): 4.3 ± 1.8 gm | Post-Drug Food Intake, 6-8 hr ([2]; rat, 10 mg/Kg ip): 1.4 ± 0.6 gm | Post-Drug Food Intake, 8-24 hr ([2]; rat, 10 mg/Kg ip): 19.2 ± 2.8 gm | Cumulative Food Intake, 1 hr [2, 7]: 0.9 ± 0.9 gm | Cumulative Food Intake, 2 hr [2, 7]: 2.0 ± 1.1 gm | Cumulative Food Intake, 6 hr ([2]; rat, 10 mg/Kg ip): 6.3 ± 2.3 gm | Cumulative Food Intake, 8 hr ([2]; rat, 10 mg/Kg ip): 7.7 ± 2.5 gm | Cumulative Food Intake, 24 hr [2, 7]: 26.8 ± 2.8 gm | Post-Drug Food Intake, 0-1 hr [2, 8]: 0.1 ± 0.2 gm | Post-Drug Food Intake, 1-2 hr ([2]; rat, 25 mg/Kg ip): 0.1 ± 0.2 gm | Post-Drug Food Intake, 2-6 hr ([2]; rat, 25 mg/Kg ip): 2.1 ± 2.3 gm | Post-Drug Food Intake, 6-8 hr ([2]; rat, 25 mg/Kg ip): 0.9 ± 0.7 gm | Post-Drug Food Intake, 8-24 hr [2, 8]: 17.1 ± 2.1 gm | Cumulative Food Intake, 1 hr [2, 9]: 0.1 ± 0.2 gm | Cumulative Food Intake, 2 hr [2, 9]: 0.2 ± 0.3 gm | Cumulative Food Intake, 6 hr [2, 9]: 2.2 ± 2.4 gm | Cumulative Food Intake, 8 hr [2, 9]: 3.0 ± 2.6 gm | Cumulative Food Intake, 24 hr [2, 9]: 20.1 ± 2.6 gm | cumulative food intake at 24 hours vs controls ([2]; rat, 25 mg/kg ip, 24 hours): substantially lower cumulative food intake at 24 hours post-injection than controls | food consumption, dose relation ([2]; rat, 5, 10, 25 mg/kg ip): dose-related decrement in food consumption | rebound feeding in the 1-6 hr interval ([2]; rat, 5 and 10 mg/kg ip, not statistically significant): varying degrees of rebound feeding | food intake at 2 hours post-injection vs control ([2]; rat, all experimental groups (5, 10, 25 mg/kg ip), 2 hours): significantly lower than control values | food intake in the first hour after drug administration ([2]; rat, ip, first hour): highly significant fall in food intake | cumulative amount of 25% Carbohydrate diet consumed, 1 hr ([3]; 1.5 mg/Kg): 5.6 ± 0.3 grams | cumulative amount of 25% Carbohydrate diet consumed, 2 hr ([3]; 1.5 mg/Kg): 7.6 ± 1.0 grams | cumulative amount of 75% Carbohydrate diet consumed, 1 hr ([3]; 1.5 mg/Kg): 4.4 ± 0.2 grams | cumulative amount of 75% Carbohydrate diet consumed, 2 hr ([3]; 1.5 mg/Kg): 5.8 ± 0.8 grams | cumulative amount of 25% Carbohydrate diet consumed, 1 hr ([3]; 3.0 mg/Kg): 5.4 ± 0.3 grams | cumulative amount of 25% Carbohydrate diet consumed, 2 hr ([3]; 3.0 mg/Kg): 7.0 ± 1.1 grams | cumulative amount of 75% Carbohydrate diet consumed, 1 hr ([3]; 3.0 mg/Kg): 4.5 ± 0.2 grams | cumulative amount of 75% Carbohydrate diet consumed, 2 hr ([3]; 3.0 mg/Kg): 6.0 ± 1.3 grams | consumption of low carbohydrate diet vs controls ([3]; 1.5 or 3.0 mg/Kg, 25% carbohydrate): consumed equivalent quantities of the low carbohydrate diet | consumption of high carbohydrate diet vs controls ([3]; 1.5 or 3.0 mg/Kg, 75% carbohydrate): consumed significantly less of the high carbohydrate diet than did controls | LD50 [4]: > 100 mg/kg | central nervous system depression [5]: CNS depressants and tranquilizing agents

From patent US4971974A, “Benzothiophenes as appetite suppressants” (Neurex Corporation, priority 1988, dated 1990)
